# Reference: patent US11260048B2, “Compounds and compositions for inhibiting retinal pigment epithelium degeneration and methods using the same” (The Schepens Eye Research Institute, Inc., priority 2017, dated 2022)
# “Also recorded” adds a separate entry of the source.
# Columns and labels:
# [1] = test system: ARPE-19 cells; test: RPE protection assay: ox-LDL-induced cell death, LDH release; assay type: cell-based, Human; settings: for cytotoxicity at 0.43 µM: compound 0.43 μM; for cytotoxicity at 1.4 µM: compound 1.4 μM; for protective effect against ox-LDL-induced RPE cell death: high dose 10.4 μM; for relative RPE protective activity compared with other compounds: ox-LDL 200 μg/ml (FIGS. 5, 7); for cytotoxicity at 4.3 µM: compound 4.3 μM
# Description: FIG. 2 is a graph showing dose-dependent inhibition of ox-LDL-induced RPE death by trolox. […] Data=mean±standard error of the mean (SEM), non-linear regression (GraphPad Prism 6).
# FIGS. 5B and 5C are graphs showing RPE protection by selective anti-oxidants with a hindered phenol group. ARPE-19 cells were treated with ox-LDL (200 μg/ml) with and without different concentrations of various anti-oxidants. Cell death was measured by LDH release assay. Data=mean±SEM, *P<0.05, ***P<0.001 compared to ox-LDL group, ANOVA.
# FIG. 6 is a graph comparing RPE protection activity of hindered phenol-containing 2,2,5,7,8-pentamethyl-6-chromanol (PMC) and selective inhibitors of nucleotide-binding domain, leucine-rich-containing family, pyrin domain-containing-3 (NLRP3) inflammasome activation. ARPE-19 cells were treated with ox-LDL (200 μg/ml) with and without different concentrations of PMC and selective inhibitors of NLRP3 inflammasome activation, MCC950 and isoliquiritigenin. Cell death was measured by LDH release assay. Data=mean±SEM, ***P<0.001 compared to ox-LDL group, ANOVA.
# FIGS. 7B and 7C are graphs that show RPE protection by different experimental analogs of trolox and BHT. ARPE-19 cells were treated with ox-LDL (200 μg/ml) with and without different concentrations of the different analogs of trolox and BHT for 48 hours, cell death was determined by LDH assay. Note that many of the compounds were able to suppress ox-LDL-induced cell death similar to PMC. Data=mean±SEM, *P<0.05, ***P<0.001 compared to ox-LDL group, ANOVA.
# ARPE-19 cells: Human ARPE-19 cells (ATCC, Manassas, Va.) were propagated as described previously (Tseng, W. A., et al., Invest Ophthalmol Vis Sci, 2013. 54(1): p. 110-20). Cells were cultured in DMEMIF12 medium (Lonza, Walkersville, Md.) supplemented with 10% fetal bovine serum (FBS) (Atlanta Biologicals, Lawrenceville, Ga.), 2 mM L-glutamine (Lonza), and 100 U/ml penicillin−100 μg/ml streptomycin (Lonza) (complete media), and passaged at a ratio of 1:2 to 1:4 using trypsin-versene (Lonza). Prior to experiments, cells were maintained in 1% FBS medium for about 3 weeks to obtain ARPE-19 cells with differentiated phenotypes. The transepithelial electrical resistance (TER) of each batch of ARPE-19 cells was measured in cells cultured on laminin-coated 0.4 μm-pore transwell membranes (Corning, Mass.) to ensure it was at least 50 ohm·cm2 (EVOM2 Voltohmmeter, World Precision Instruments, Inc., Sarasota, Fla.) before the cells were used for experiments.
# ARPE-19 cells were treated with ox-LDL (200 μg/ml) with and without different concentrations of the selected analogs for 48 hours, cell death was determined by LDH assay.
# [2] = test system: ARPE-19 cells; test: Lysosomal integrity, LysoTracker staining; assay type: cell-based, Human
# Description: FIG. 3 is a graph showing that trolox dose-dependently suppresses ox-LDL-induced lysosomal destabilization in RPE. ARPE-19 cells were treated with ox-LDL with and without different concentrations of trolox for 36 hours. Lysosomal integrity was determined by LysoTracker staining (ThermoFisher Scientific), followed by image analysis to quantify the number of intact lysosomes per cell. […] Data=mean±SEM, *P<0.05, **P<0.01, ***P<0.001 compared to ox-LDL group, analysis of variance (ANOVA).
# (§1) Lysosomal integrity and NF-κB activation: ARPE-19 cells were treated with ox-LDL with and without different concentrations of trolox for 36 hours. Lysosomal integrity was determined by LysoTracker staining (ThermoFisher Scientific), followed by image analysis to quantify the number of intact lysosomes per cell. […] Antibody specific for NF-κB p65 (Cell Signaling, Danvers, Mass.) was used for the immunostaining.
# [3] = test system: NF-κB; test: NF-κB activation, nuclear translocation of NF-κB p65 by immunostaining; assay type: cell-based, Human; settings: ox-LDL 200 μg/ml, trolox 10.4 μM, 36 hours (FIG. 4)
# Description: as §1
# [4] = test system: ARPE-19 cells; test: ox-LDL-induced ROS formation, ROS-ID Total ROS detection kit; settings: ox-LDL 200 μg/ml, 28 hours (FIG. 1)
# [5] = Homo sapiens, ARPE-19, ox-LDL 200 μg/ml, 48 hours, LDH assay, read-out: Protective activity against 200 μg/ml ox-LDL (% cell death, compound concentration)
Structure (SMILES),"cytotoxicity at 1.4 µM [1, 5]","cytotoxicity at 4.3 µM [1, 5]",other results
Cc1c(C)c2c(c(C)c1O)CCC(C)(C(=O)N(C)CCc1cnn(C)c1)O2 (centres unmarked) [J],,,"cytotoxicity at 0.43 µM [1, 5]: < 10%"
Cc1c(C)c2c(c(C)c1O)CCC(C)(C(=O)N(C)Cc1ncon1)O2 (centres unmarked) [K],< 10%,,
Cc1c(C)c2c(c(C)c1O)CCC(C)(C(=O)N(C)Cc1ncc[nH]1)O2 (centres unmarked) [L],< 10%,,
"CC(C)(O)c1coc(S(=O)(=O)NC(=O)Nc2c3c(cc4c2CCC4)CCC3)c1 [MCC950, reference compound]",,,protective effect against ox-LDL-induced RPE cell death ([1]; ox-LDL 200 μg/ml (FIG. 6)): did not have any protective effect
Cc1noc(C)c1CNC(=O)C1(C)CCc2c(C)c(O)c(C)c(C)c2O1 (centres unmarked) [M],,,"cytotoxicity at 0.43 µM [1, 5]: < 10%"
Cc1cc2n(n1)CCN(C(=O)C1(C)CCc3c(C)c(O)c(C)c(C)c3O1)C2 (centres unmarked) [N],< 10%,,
Cc1c(C)c2c(c(C)c1O)CCC(C)(C(=O)N1CCC(c3ncc[nH]3)CC1)O2 (centres unmarked) [O],< 10%,,
"Cc1c(C)c2c(c(C)c1O)CCC(C)(C)O2 [PMC, 2,2,5,7,8-pentamethyl-6-chromanol, reference compound]",,,"protection from ox-LDL-induced RPE cell death ([1]; 0.43 μM, ox-LDL 200 μg/ml (FIG. 6)): > 95%; relative RPE protective activity compared with other compounds [1]: significantly more effective; also recorded: significantly more potent than trolox and butylated hydroxyl toluene (BHT)"
CCc1cc(CN(C)C(=O)C2(C)CCc3c(C)c(O)c(C)c(C)c3O2)on1 (centres unmarked) [P],,,"cytotoxicity at 0.14 µM ([1]; Homo sapiens, compound 0.14 μM, ARPE-19, ox-LDL 200 μg/ml, 48 hours, LDH assay, read-out: Protective activity against 200 μg/ml ox-LDL (% cell death, compound concentration)): ~60%; cytotoxicity at 0.43 µM [1, 5]: < 10%"
Cc1c(C)c2c(c(C)c1O)CCC(C)(C(=O)NCCNS(C)(=O)=O)O2 (centres unmarked) [Q],~50%,< 10%,
Cc1c(C)c2c(c(C)c1O)CCC(C)(C(=O)N1CCOCC1)O2 (centres unmarked) [R],< 10%,,
Cc1c(C)c2c(c(C)c1O)CCC(C)(C(=O)NCCCn1cncn1)O2 (centres unmarked) [S],,< 10%,
CCN(Cc1ccccn1)C(=O)C1(C)CCc2c(C)c(O)c(C)c(C)c2O1 (centres unmarked) [T],< 10%,,
Cc1c(C)c2c(c(C)c1O)CCC(C)(C(=O)N1CC(n3cccn3)C1)O2 (centres unmarked) [U],< 10%,,
CCN(Cc1noc(COC)n1)C(=O)C1(C)CCc2c(C)c(O)c(C)c(C)c2O1 (centres unmarked) [V],~30%,< 10%,
Cc1c(C)c2c(c(C)c1O)CCC(C)(C(=O)N(C)Cc1n[nH]c(=O)[nH]1)O2 (centres unmarked) [W],< 12%,,
Cc1coc(C)c1CN(C)C(=O)C1(C)CCc2c(C)c(O)c(C)c(C)c2O1 (centres unmarked) [X],~22%,< 16%,
Cc1c(C)c2c(c(C)c1O)CCC(C)(C(=O)N(C)CCCn1cccn1)O2 (centres unmarked) [Y],~22%,< 21%,
Cc1c(C)c2c(c(C)c1O)CCC(C)(C(=O)N1CCNC(=O)C1)O2 (centres unmarked) [ZZ],~23%,< 13%,
Cc1c(C)c2c(c(C)c1O)CCC(C)(C(=O)N(C)Cc1cc[nH]n1)O2 (centres unmarked) [Z],~22%,< 15%,
"O=C(/C=C/c1ccc(O)cc1)c1ccc(O)cc1O [isoliquiritigenin, reference compound]",,,protective effect against ox-LDL-induced RPE cell death ([1]; ox-LDL 200 μg/ml (FIG. 6)): only protected RPE cells at high dose
Cc1c(C)c2c(c(C)c1O)CCC(C)(C(=O)O)O2 (centres unmarked) [trolox],,,"EC50 ([1]; Homo sapiens, ARPE-19, ox-LDL 200 μg/ml, 48 hours, trolox 0.65-10.4 μM, LDH release (FIG. 2), read-out: estimated EC50, suppression of ox-LDL-induced RPE death): ~5.4 µM; relative RPE protective activity compared with other compounds [1]: significantly more effective; lysosomal integrity upon ox-LDL treatment ([2]; ARPE-19, 36 hours (FIG. 3)): preserved lysosomal integrity; number of intact lysosomes per cell ([2]; trolox 10.4 μM in the presence of ox-LDL, 36 hours): higher number of intact lysosomes per cell compared to control; NF-κB activation upon ox-LDL treatment [3]: suppressed pro-inflammatory transcription factor NF-κB activation; ox-LDL-induced ROS formation in RPE cells [4]: suppressed ROS formation"
